The term EC50 denotes the concentration that produces a half-maximal response.

The assay has as its target T1, human M2 receptor (Homo sapiens, UniProt P08172).
T1 sequence (P08172 1-466): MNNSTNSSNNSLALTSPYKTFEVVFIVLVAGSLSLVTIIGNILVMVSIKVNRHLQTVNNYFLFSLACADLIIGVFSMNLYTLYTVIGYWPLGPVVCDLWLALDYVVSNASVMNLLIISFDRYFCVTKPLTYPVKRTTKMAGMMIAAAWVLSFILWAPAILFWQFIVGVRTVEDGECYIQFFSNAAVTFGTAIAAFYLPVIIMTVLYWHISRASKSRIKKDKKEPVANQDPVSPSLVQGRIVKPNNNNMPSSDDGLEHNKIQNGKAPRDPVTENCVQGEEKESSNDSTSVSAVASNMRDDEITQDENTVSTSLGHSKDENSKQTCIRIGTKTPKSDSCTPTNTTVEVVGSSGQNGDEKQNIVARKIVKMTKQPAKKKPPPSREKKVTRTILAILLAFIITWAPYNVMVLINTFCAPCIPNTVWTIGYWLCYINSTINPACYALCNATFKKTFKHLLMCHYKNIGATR
The conditions noted are these: for Emax: read-out: Efficiency, boosting of the acetylcholine effect at EC20 acetylcholine concentration; for Efficiency: boosting of the acetylcholine effect at EC20 acetylcholine concentration.

[1] abbreviates: Receptor activity EC50, M2-GIRK1/4 activation test, acetylcholine at EC20, allosteric potency, in some cases mean values from two or more determinations.
[2] abbreviates: Receptor activity EC50, allosteric potency at EC20 acetylcholine, M2-GIRK1/4 reporter cells, in some cases mean of two or more determinations.

Read-outs that look alike come from different tables or passages of the source.

`CC[C@@H](NC(=O)c1cn(-c2ccc(F)cc2F)c2nc(N3CCCCC3=O)ccc2c1=O)C(F)(F)F` [Example 178] gave an EC50 under setting [1] of 197 nM.

In turn, `O=C(Nc1c(Cl)cccc1Cl)c1cn(-c2c(F)cc(F)cc2F)c2nc(N3CCNC3=O)ccc2c1=O` [Example 613, N-(2,6-Dichlorophenyl)-4-oxo-7-(2-oxoimidazolidin-1-yl)-1-(2,4,6-trifluorophenyl)-1,4-dihydro-1,8-naphthyridine-3-carboxamide] came in with an EC50 under setting [2] of 33 nM. For the same compound, the Emax (M2-GIRK1/4 reporter cells) was 95.5%. `CC(C)C[C@H](NC(=O)c1cn(-c2ccc(F)cc2F)c2nc(N(C)C)ccc2c1=O)C(F)(F)F` [Example 137, 1-(2,4-Difluorophenyl)-7-(dimethylamino)-4-oxo-N-[(2S)-1,1,1-trifluoro-4-methylpentan-2-yl]-1,4-dihydro-1,8-naphthyridine-3-carboxamide] had an EC50 under setting [1] of 16 nM. `NC(=O)N1CCN(c2ccc3c(=O)c(C(=O)N[C@H](C4CC4)C(F)(F)F)cn(-c4c(F)cc(F)cc4F)c3n2)CC1` [Example 650, 7-(4-Carbamoylpiperazin-1-yl)-N-[(1R)-1-cyclopropyl-2,2,2-trifluoroethyl]-4-oxo-1-(2,4,6-trifluorophenyl)-1,4-dihydro-1,8-naphthyridine-3-carboxamide] showed an EC50 under setting [2] of 83 nM. Moreover, the Emax (M2-GIRK1/4 reporter cells) is 100%. Under setting [1], `CCC(NC(=O)c1cn(-c2ccc(F)cc2F)c2nc(N3CCCS3(=O)=O)ccc2c1=O)C(F)(F)F` (stereo not drawn) [Example 180] displayed an EC50 of 115 nM.

The compound `CNc1ccc2c(=O)c(C(=O)NC34CCC(CC3)CC4)cn(-c3ccc(F)cc3F)c2n1` [Example 162] gave an EC50 under setting [1] of 38 nM. In turn, `O=C(N[C@@H](C1CC1)C(F)(F)F)c1cn(-c2c(F)cc(F)cc2F)c2nc(N3CC(CO)OC3=O)ccc2c1=O` (mixture of isomers) [Example 659, N-[(1S)-1-Cyclopropyl-2,2,2-trifluoroethyl]-7-[5-(hydroxymethyl)-2-oxo-1,3-oxazolidin-3-yl]-4-oxo-1-(2,4,6-trifluorophenyl)-1,4-dihydro-1,8-naphthyridine-3-carboxamide] returned an EC50 under setting [2] of 81 nM. In addition, the Emax (M2-GIRK1/4 reporter cells) was 98%. Regarding `O=C(NC12CC3CC(CC(C3)C1)C2)c1cn(-c2ccc(F)cc2F)c2nc(N3CCC(O)CC3=O)ccc2c1=O` (stereo not drawn) [Example 173], the EC50 under setting [1] was 88 nM. The same measure, in the same setting: the figure for `CC(NC(=O)c1cn(-c2ccc(F)cc2F)c2nc(N(C)CCF)ccc2c1=O)C(F)(F)F` (racemic) [Example 105, rac-1-(2,4-Difluorophenyl)-7-[(2-fluoroethyl)(methyl)amino]-4-oxo-N-[1,1,1-trifluoropropan-2-yl]-1,4-dihydro-1,8-naphthyridine-3-carboxamide] is 146 nM. Compound `COC1(C)CN(c2ccc3c(=O)c(C(=O)N[C@@H](C(C)(C)C)C(F)(F)F)cn(-c4c(F)cc(F)cc4F)c3n2)C1` [Example 598, 7-(3-Methoxy-3-methylazetidin-1-yl)-4-oxo-N-[(2S)-1,1,1-trifluoro-3,3-dimethylbutan-2-yl]-1-(2,4,6-trifluorophenyl)-1,4-dihydro-1,8-naphthyridine-3-carboxamide] came in with an EC50 under setting [2] of 21 nM. Moreover, the Emax (M2-GIRK1/4 reporter cells) was 100%.

`CN(C)c1ccc2c(=O)c(C(=O)NC(c3cccc(F)c3)C(F)(F)F)cn(-c3ccc(F)cc3F)c2n1` (racemic) [Example 140, rac-1-(2,4-Difluorophenyl)-7-(dimethylamino)-4-oxo-N-[2,2,2-trifluoro-1-(3-fluorophenyl)ethyl]-1,4-dihydro-1,8-naphthyridine-3-carboxamide] displayed an EC50 under setting [1] of 68 nM.

Under setting [2], `CC1C(=O)N(c2ccc3c(=O)c(C(=O)N[C@@H](C4CC4)C(F)(F)F)cn(-c4c(F)cc(F)cc4F)c3n2)CC1O` (stereo partly drawn) [Example 579, N-[(1 S)-1-Cyclopropyl-2,2,2-trifluoroethyl]-7-[4-hydroxy-3-methyl-2-oxopyrrolidin-1-yl]-4-oxo-1-(2,4,6-trifluorophenyl)-1,4-dihydro-1,8-naphthyridine-3-carboxamide] came in with an EC50 of 14 nM. Also, where the note is “M2-GIRK1/4 reporter cells”, the Emax was determined as 97.5%. In the case of `O=C(NC(c1c(F)cccc1F)C(F)(F)F)c1cn(-c2ccc(F)cc2F)c2nc(N3CCC(O)CC3=O)ccc2c1=O` (racemic) [Example 252, rac-1-(2,4-Difluorophenyl)-N-[1-(2,6-difluorophenyl)-2,2,2-trifluoroethyl]-7-[4-hydroxy-2-oxopiperidin-1-yl]-4-oxo-1,4-dihydro-1,8-naphthyridine-3-carboxamide], a half-maximal effect under setting [1] (EC50) was put at 109 nM.

For the compound `NC(=O)N1CCN(c2ccc3c(=O)c(C(=O)Nc4c(Cl)cccc4Cl)cn(-c4c(F)cc(F)cc4F)c3n2)CC1` [Example 636], a half-maximal response under setting [2] (EC50) required 60 nM. Also, under “M2-GIRK1/4 reporter cells”, the Emax is 98.1%. `O=C(NC(CC(F)(F)F)C1CC1)c1cn(-c2c(F)cc(F)cc2F)c2nc(N3C[C@@H](O)[C@H](O)C3)ccc2c1=O` (single isomer, unassigned) [Example 440] showed an EC50 under setting [2] of 23 nM. The Efficiency (M2-GIRK1/4 reporter cells) is recorded as 98.5%. In turn, `CC(C)(NC(=O)c1cn(-c2ccc(F)cc2F)c2nc(N3CCCS3(=O)=O)ccc2c1=O)c1c(F)cccc1F` [compound 185] had a concentration giving a half-maximal response (EC50) under setting [1] of 156 nM. The same measure, in the same setting: the figure for `O=C(NC12CC3CC(CC(C3)C1)C2)c1cn(-c2ccc(F)cc2F)c2nc(N3CCNC3=O)ccc2c1=O` [Example 186, 1-(2,4-Difluorophenyl)-4-oxo-7-(2-oxoimidazolidin-1-yl)-N-(tricyclo[3.3.1.1^3,7]dec-1-yl)-1,4-dihydro-1,8-naphthyridine-3-carboxamide] is 30 nM; for `O=C(N[C@@H](C1CC1)C(F)(F)F)c1cn(-c2c(F)cccc2F)c2nc(N3C[C@@H](O)[C@H](O)C3)ccc2c1=O` [Example 345, N-[(1 S)-1-Cyclopropyl-2,2,2-trifluoroethyl]-1-(2,6-difluorophenyl)-7-[(3R,4R)-3,4-dihydroxypyrrolidin-1-yl]-4-oxo-1,4-dihydro-1,8-naphthyridine-3-carboxamide] it is 59 nM; for `CC(C)[C@H](NC(=O)c1cn(-c2ccc(F)cc2F)c2nc(N(C)C)ccc2c1=O)C(F)(F)F` [Example 134, 1-(2,4-Difluorophenyl)-7-(dimethylamino)-4-oxo-N-[(2S)-1,1,1-trifluoro-3-methylbutan-2-yl]-1,4-dihydro-1,8-naphthyridine-3-carboxamide] it is 32 nM. Under setting [1], `C[C@H](NC(=O)c1cn(-c2c(F)cc(F)cc2F)c2nc(N3CC4CC4(O)C3)ccc2c1=O)C(F)(F)F` (single isomer, unassigned) [Example 318] registered an EC50 of 14 nM. Turning to `CC[C@H](NC(=O)c1cn(-c2c(F)cc(F)cc2F)c2nc(N3CC4(COC4)C3)ccc2c1=O)C(F)(F)F` [Example 498], the EC50 under setting [2] worked out at 60 nM. For the same compound, the Emax (M2-GIRK1/4 reporter cells) was 83.5%.

Consider `O=C(N[C@@H](C1CC1)C(F)(F)F)c1cn(-c2c(F)cc(F)cc2F)c2nc(N3CC4(COC4)C3)ccc2c1=O` [Example 492], for which the response under setting [2] was half-maximal at 44 nM (EC50). Also, the Emax (M2-GIRK1/4 reporter cells) worked out at 97.5%. The like results for `CC[C@H](NC(=O)c1cn(-c2c(F)cc(F)cc2F)c2nc(N3CC(F)C3)ccc2c1=O)C(F)(F)F` [Example 501] were, in that order, 58 nM and 98%. The like results for `CC1CC(=O)N(c2ccc3c(=O)c(C(=O)N[C@@H](C4CC4)C(F)(F)F)cn(-c4c(F)cc(F)cc4Cl)c3n2)C1` (mixture of isomers) [Example 429, 1-(2-Chloro-4,6-difluorophenyl)-N-[(1 S)-1-cyclopropyl-2,2,2-trifluoroethyl]-7-[4-methyl-2-oxopyrrolidin-1-yl]-4-oxo-1,4-dihydro-1,8-naphthyridine-3-carboxamide] were, in that order, 16 nM and 99%.

In the case of `CC(C)C(NC(=O)c1cn(-c2c(F)cc(F)cc2F)c2nc(N3CCNC3=O)ccc2c1=O)C(F)(F)F` (racemic) [Example 536, 4-Oxo-7-(2-oxoimidazolidin-1-yl)-N-[1,1,1-trifluoro-3-methylbutan-2-yl]-1-(2,4,6-trifluorophenyl)-1,4-dihydro-1,8-naphthyridine-3-carboxamide], the EC50 under setting [2] was determined as 16 nM. Besides, the Emax (M2-GIRK1/4 reporter cells) amounted to 99.5%. `CCC(COC(F)(F)F)NC(=O)c1cn(-c2c(F)cc(F)cc2F)c2nc(N3CCNC3=O)ccc2c1=O` (racemic) [Example 611, 4-Oxo-7-(2-oxoimidazolidin-1-yl)-N-[1-(trifluoromethoxy)butan-2-yl]-1-(2,4,6-trifluorophenyl)-1,4-dihydro-1,8-naphthyridine-3-carboxamide] registered an EC50 under setting [2] of 17 nM. Further, the Efficiency (M2-GIRK1/4 reporter cells) is 90.0%. Turning to `CCC(NC(=O)c1cn(-c2ccc(F)cc2F)c2nc(N3C[C@@H](O)CC3=O)ccc2c1=O)C(F)(F)C(F)(F)F` (mixture of isomers) [Example 556, 1-(2,4-Difluorophenyl)-7-[(4S)-4-hydroxy-2-oxopyrrolidin-1-yl]-4-oxo-N-[1,1,1,2,2-pentafluoropentan-3-yl]-1,4-dihydro-1,8-naphthyridine-3-carboxamide], the EC50 under setting [2] was 10 nM. The Emax (M2-GIRK1/4 reporter cells) was 100%. As for `CCCC(NC(=O)c1cn(-c2ccc(F)cc2F)c2nc(NCCO)ccc2c1=O)C(F)(F)F` (stereo not drawn) [Example 81, 1-(2,4-Difluorophenyl)-7-[(2-hydroxyethyl)amino]-4-oxo-N-[1,1,1-trifluoropentan-2-yl]-1,4-dihydro-1,8-naphthyridine-3-carboxamide], the EC50 under setting [1] stood at 102 nM.

Values taken from US20190367516A1 (Bayer Pharma Aktiengesellschaft, priority 2015, published 2019).
